Experimental findings from patent US20260183350A1, “ANTIBIOTIC-RESISTANT BACTERIA” (priority 2022, published 2026) are described below.

The subject of assay [1] is faecal microbiota. Kind of assay: Faecal batch culture with antibiotics promoting CRE colonisation: 1H-NMR of nutrients and metabolites. It counts as cell-based, human. The settings on record: 11 healthy donors, antibiotic at faecal concentration, 24 hours anaerobic. As to the method:
(§1) The inventors performed faecal culture experiments to measure the effects of eight broad-spectrum antibiotics on the faecal microbiota collected from 11 healthy human donors. Faecal culture experiments were performed under anaerobic conditions using a complex gut growth medium that was designed to mimic the nutrients found in the human distal gut (McDonald, J. A. et al. Evaluation of microbial community reproducibility, stability and composition in a human distal gut chemostat model. J. Microbiol. Methods 95, 167-174 (2013)). […] Moon, Y. S., Chung, K. C. & Gill, M. A. Pharmacokinetics of meropenem in animals, healthy volunteers, and patients. Clin Infect Dis 24, S249-S255 (1997). Kager, L., Brismar, B., Malmborg, A. S. & Nord, C. E. Imipenem concentrations in colorectal surgery and impact on the colonic microflora. Antimicrob Agents Chemother 33, 204-8 (1989). Pletz, M. et al. Ertapenem pharmacokinetics and impact on intestinal microflora, in comparison to those of ceftriaxone, after multiple dosing in male and female volunteers. Antimicrob Agents Chemother 48, 3765-72 (2004). Nord, C. E., Brismar, B., Kasholm-Tengve, B. & Tunevall, G. Effect of piperacillin/tazobactam treatment on human bowel microflora. J Antimicrob Chemother 31, 61-5 (1993). […] Antimicrob Agents Chemother 63, 2244 (2019). Pessôa de Menezes e Silva, C H. Elaboration and evaluation of a new screening medium for detection and presumptive identification of extended-spectrum beta-lactamase-producing organisms (ESBL). Braz J Microbiol 31, 271-274 (2000). Brismar, B., Edlund, C., Malmborg, A. S. & Nord, C. […] Antimicrob Agents Chemother 34, 481-3 (1990)). Cultures were incubated anaerobically at 37° C. for 24 hours. Samples were analysed by ^1H-NMR spectroscopy (for nutrient and metabolite profiling) and […] rRNA gene sequencing with 16S rRNA gene qPCR (for bacterial composition and biomass) (McDonald, J. A. K. et a/. Inhibiting Growth of Clostridioides difficile by Restoring Valerate, Produced by the Intestinal Microbiota. Gastroenterology 155, 1495-1507 (2018)).
Supernatants were prepared from faeces by vortexing 300 mg of faeces in 900 μl of HPLC-grade water for 10 minutes at 3000 rpm followed by centrifugation at 17,000×g for 10 minutes at 4° C. Supernatants were prepared from faecal culture samples by centrifugation at 17,000×g for 10 minutes at 4° C. Supernatants were frozen at −80° C. until they were ready for analysis.
^1H-NMR spectroscopy was performed as previously described (McDonald, J. A. K. et al. Inhibiting Growth of Clostridioides difficile by Restoring Valerate, Produced by the Intestinal Microbiota. Gastroenterology 155, 1495-1507 (2018)). Briefly, sample supernatants were randomized and defrosted at room temperature for 1 hour. Sample supernatants were then centrifuged for 10 min at 17 000×g and 4° C. The pellet was discarded and 400 μl of supernatant was added to 250 μl NMR buffer (28.85 g Na2HPO4, 5.25 g NaH2PO4, 1 mM TSP, 3 mM NaN3, deuterium oxide to 1 L, pH 7.4). 600 μl of sample was used to fill each 5 mm NMR tube to be loaded into the SampleJet system.
^1H-NMR spectroscopy was performed using the Bruker AVANCE III HD 800 MHz spectrometer (Bruker Bio-Spin, Rheinstetten, Germany). 1D spectra (a standard NOESYGPPR1D pulse sequence (RD-90°-t1-90°-tm-90°-ACQ)) as well as 2D spectra (standard 2D JRESGPPRQF pulse sequence) were acquired. A recycle delay of 4 seconds and mixing time of 100 ms was used. The 90° pulse length was approximately 10 μs and 32 scans were recorded.
NMR spectra were imported into MATLAB r2019b (The Mathworks, USA) using an in-house script. Spectra were aligned and the water (4.6-5 ppm) and TSP (−0.2-0.2 ppm) peaks were cut. Compounds were identified by comparison to spectral databases in Chenomx NMR Suite (Chenomx, Canada). Representative peaks were integrated for quantification of compounds.

The test system of assay [2] is faecal microbiota. Kind of assay: Faecal batch culture with antibiotics promoting CRE colonisation: 16S rRNA gene sequencing and qPCR. It counts as cell-based, human. The settings on record: 11 healthy donors, antibiotic at faecal concentration, 24 hours anaerobic. The procedure: as §1
Background: Real-time PCR tracks product formation cycle by cycle.

In the case of `CC(C)(O/N=C(\C(=O)N[C@@H]1C(=O)N2C(C(=O)[O-])=C(C[n+]3ccccc3)CS[C@H]12)c1csc(N)n1)C(=O)O` [CAZ, ceftazidime], the “Change in butyrate concentration in faecal cultures” value (from here on “Change in butyrate concentration”) with faecal microbiota [1] was “increased”. The “Change in abundance of bacterial families relative to antibiotic-naive faecal cultures” value with faecal microbiota [2] was “decreased the abundance of Bifidobacteriaceae”.
For the molecule `CO/N=C(\C(=O)N[C@@H]1C(=O)N2C(C(=O)O)=C(CSc3nc(=O)c(=O)[nH]n3C)CS[C@H]12)c1csc(N)n1` [CRO, ceftriaxone], the “Change in butyrate concentration” value with faecal microbiota [1] is given as “decreased”. In addition, the “Change in abundance of bacterial families relative to antibiotic-naive faecal cultures” value with faecal microbiota [2] is “decreased the abundance of Bifidobacteriaceae”.
Take `CO/N=C(\C(=O)N[C@@H]1C(=O)N2C(C(=O)O)=C(COC(C)=O)CS[C@H]12)c1csc(N)n1` [CTX, cefotaxime]: in the assay on faecal microbiota [1], the “Change in butyrate concentration” value is reported as “increased”. For the same molecule, the “Change in abundance of bacterial families relative to antibiotic-naive faecal cultures” value in the assay on faecal microbiota [2] was “decreased the abundance of Bifidobacteriaceae”.
Regarding piperacillin/tazobactam [TZP], the “Change in butyrate concentration” value with faecal microbiota [1] was “decreased”. For the same molecule, the “Change in abundance of bacterial families relative to antibiotic-naive faecal cultures” value with faecal microbiota [2] was “decreased the abundance of Bifidobacteriaceae and Bacteroidaceae”.
